For experiment [1], the target named is Phosphatidylinositol 4,5-bisphosphate 3-kinase catalytic subunit alpha isoform (Homo sapiens, UniProt P42336). Put plainly: Binding affinity to human PI3Kalpha (108 to 1068 residues) expressed in mammalian expression system by KINOMEscan assay.
Experiment [2] concerns the target T1, Phosphatidylinositol 4,5-bisphosphate 3-kinase catalytic subunit beta isoform (Homo sapiens, UniProt P42338). Put plainly: Binding affinity to human PI3Kbeta (118 to 1070 residues) expressed in mammalian expression system by KINOMEscan assay.
Experiment [3] has as its target T2, Phosphatidylinositol 4,5-bisphosphate 3-kinase catalytic subunit delta isoform (Homo sapiens, UniProt O00329).
T2 sequence (O00329 whole entry): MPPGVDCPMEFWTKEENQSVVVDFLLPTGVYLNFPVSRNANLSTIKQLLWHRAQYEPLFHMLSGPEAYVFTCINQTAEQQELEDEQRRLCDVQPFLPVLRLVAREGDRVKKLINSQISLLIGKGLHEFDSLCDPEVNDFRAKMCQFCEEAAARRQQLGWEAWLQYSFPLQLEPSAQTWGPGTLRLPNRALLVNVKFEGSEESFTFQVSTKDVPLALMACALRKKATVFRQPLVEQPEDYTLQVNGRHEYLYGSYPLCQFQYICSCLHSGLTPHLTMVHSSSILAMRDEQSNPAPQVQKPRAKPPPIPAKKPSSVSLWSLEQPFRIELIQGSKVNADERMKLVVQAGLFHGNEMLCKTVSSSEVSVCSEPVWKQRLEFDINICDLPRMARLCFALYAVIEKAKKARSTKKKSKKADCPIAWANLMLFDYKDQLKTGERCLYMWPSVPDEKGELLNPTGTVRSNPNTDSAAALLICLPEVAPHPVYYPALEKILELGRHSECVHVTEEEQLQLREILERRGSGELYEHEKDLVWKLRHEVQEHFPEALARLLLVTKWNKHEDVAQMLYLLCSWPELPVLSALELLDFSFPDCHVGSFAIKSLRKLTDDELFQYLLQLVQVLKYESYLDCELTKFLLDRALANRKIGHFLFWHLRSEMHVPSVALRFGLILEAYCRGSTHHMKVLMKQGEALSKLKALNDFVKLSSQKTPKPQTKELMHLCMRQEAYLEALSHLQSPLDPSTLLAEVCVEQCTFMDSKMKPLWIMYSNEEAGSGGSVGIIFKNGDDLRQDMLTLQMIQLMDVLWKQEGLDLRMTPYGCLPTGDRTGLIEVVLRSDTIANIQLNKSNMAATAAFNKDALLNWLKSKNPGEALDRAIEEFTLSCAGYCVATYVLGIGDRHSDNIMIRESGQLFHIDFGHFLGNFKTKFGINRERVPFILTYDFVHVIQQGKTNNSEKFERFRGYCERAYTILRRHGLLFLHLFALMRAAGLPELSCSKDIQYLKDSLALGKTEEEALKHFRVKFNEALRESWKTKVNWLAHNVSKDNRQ
Description: Binding affinity to human PI3Kdelta (108 to 1044 residues) expressed in mammalian expression system by KINOMEscan assay.

Experiment [4] addresses Phosphatidylinositol 4,5-bisphosphate 3-kinase catalytic subunit gamma isoform (Homo sapiens, UniProt P48736). Description: Binding affinity to human PI3Kgamma (144 to 1102 residues) expressed in mammalian expression system by KINOMEscan assay.
Experiment [5] has as its target Serine/threonine-protein kinase mTOR (Homo sapiens, UniProt P42345). Description: Binding affinity to human MTOR (1382 to 2549 residues) expressed in mammalian expression system by KINOMEscan assay.
In experiment [6] the target is T1, Phosphatidylinositol 4,5-bisphosphate 3-kinase catalytic subunit beta isoform. Description: Inhibition of PI3Kbeta in human PC3 cells assessed as suppression of AKT phosphorylation at Ser473 after 60 mins by ELISA. The format is cell-based, PC-3. In general terms: An ELISA detects its analyte on a solid surface through an enzyme-linked reagent.
Experiment [7] shares this target. Description: Inhibition of PI3Kbeta in human PC3 cells assessed as suppression of AKT phosphorylation at Thr308 after 60 mins by ELISA. In kind it is cell-based, PC-3.

Phosphatidylinositol 4,5-bisphosphate 3-kinase catalytic subunit alpha isoform, sequence (P42336 whole entry, the tested form may be a part, canonical isoform): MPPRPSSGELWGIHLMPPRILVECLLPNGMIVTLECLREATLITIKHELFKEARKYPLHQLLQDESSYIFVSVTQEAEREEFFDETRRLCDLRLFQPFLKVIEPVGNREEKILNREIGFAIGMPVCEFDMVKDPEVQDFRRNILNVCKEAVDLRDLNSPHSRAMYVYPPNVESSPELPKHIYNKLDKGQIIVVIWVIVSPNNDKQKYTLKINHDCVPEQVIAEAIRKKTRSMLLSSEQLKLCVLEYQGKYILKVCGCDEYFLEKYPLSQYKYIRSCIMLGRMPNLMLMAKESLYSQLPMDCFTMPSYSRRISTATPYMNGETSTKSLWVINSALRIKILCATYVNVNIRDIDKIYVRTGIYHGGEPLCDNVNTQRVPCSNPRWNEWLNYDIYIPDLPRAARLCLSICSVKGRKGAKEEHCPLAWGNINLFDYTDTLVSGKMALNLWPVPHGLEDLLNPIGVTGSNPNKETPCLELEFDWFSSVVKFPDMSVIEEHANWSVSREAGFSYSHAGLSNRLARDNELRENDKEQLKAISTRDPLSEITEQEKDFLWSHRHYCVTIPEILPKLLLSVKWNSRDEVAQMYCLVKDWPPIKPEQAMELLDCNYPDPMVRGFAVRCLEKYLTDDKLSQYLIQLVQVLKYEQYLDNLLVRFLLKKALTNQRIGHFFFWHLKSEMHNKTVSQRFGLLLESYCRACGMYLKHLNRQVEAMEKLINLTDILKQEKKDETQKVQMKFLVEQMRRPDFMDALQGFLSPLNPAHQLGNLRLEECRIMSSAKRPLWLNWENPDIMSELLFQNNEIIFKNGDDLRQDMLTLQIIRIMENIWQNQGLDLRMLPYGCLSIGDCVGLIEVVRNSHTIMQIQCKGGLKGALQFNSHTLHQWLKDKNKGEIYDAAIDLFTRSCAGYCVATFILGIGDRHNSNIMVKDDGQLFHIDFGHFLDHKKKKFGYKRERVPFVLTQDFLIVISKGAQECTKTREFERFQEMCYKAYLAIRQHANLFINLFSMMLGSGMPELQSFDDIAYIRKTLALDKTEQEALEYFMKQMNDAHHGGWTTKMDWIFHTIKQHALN
T1 sequence (P42338 whole entry, the tested form may be a part, canonical isoform): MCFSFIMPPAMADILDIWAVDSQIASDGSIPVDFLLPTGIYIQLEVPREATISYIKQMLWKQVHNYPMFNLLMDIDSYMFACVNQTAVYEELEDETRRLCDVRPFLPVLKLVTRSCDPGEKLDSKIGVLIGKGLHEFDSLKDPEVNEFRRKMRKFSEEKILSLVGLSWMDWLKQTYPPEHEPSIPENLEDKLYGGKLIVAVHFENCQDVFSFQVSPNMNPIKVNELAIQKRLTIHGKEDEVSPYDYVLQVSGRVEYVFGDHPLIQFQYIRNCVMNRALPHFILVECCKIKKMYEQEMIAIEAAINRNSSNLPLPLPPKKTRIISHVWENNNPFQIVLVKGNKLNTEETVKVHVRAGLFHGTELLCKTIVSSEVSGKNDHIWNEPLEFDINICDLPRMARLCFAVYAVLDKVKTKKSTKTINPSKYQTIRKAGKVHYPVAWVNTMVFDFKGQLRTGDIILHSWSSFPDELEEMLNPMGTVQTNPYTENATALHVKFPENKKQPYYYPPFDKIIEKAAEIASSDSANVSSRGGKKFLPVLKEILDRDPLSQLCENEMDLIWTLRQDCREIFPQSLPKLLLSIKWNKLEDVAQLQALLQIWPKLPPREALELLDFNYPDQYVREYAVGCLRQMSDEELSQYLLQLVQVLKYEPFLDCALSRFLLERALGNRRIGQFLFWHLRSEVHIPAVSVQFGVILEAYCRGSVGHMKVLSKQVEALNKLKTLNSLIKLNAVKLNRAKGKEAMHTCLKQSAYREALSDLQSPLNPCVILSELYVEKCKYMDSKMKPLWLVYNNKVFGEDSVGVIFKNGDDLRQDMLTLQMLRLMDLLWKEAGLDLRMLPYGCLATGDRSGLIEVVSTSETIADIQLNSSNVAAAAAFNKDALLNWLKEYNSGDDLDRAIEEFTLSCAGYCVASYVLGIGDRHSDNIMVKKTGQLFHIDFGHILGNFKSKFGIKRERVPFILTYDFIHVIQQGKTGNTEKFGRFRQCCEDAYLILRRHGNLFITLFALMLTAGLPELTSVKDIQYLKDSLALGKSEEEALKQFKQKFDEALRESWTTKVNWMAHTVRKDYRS
Phosphatidylinositol 4,5-bisphosphate 3-kinase catalytic subunit gamma isoform, sequence (P48736 whole entry, the tested form may be a part, canonical isoform): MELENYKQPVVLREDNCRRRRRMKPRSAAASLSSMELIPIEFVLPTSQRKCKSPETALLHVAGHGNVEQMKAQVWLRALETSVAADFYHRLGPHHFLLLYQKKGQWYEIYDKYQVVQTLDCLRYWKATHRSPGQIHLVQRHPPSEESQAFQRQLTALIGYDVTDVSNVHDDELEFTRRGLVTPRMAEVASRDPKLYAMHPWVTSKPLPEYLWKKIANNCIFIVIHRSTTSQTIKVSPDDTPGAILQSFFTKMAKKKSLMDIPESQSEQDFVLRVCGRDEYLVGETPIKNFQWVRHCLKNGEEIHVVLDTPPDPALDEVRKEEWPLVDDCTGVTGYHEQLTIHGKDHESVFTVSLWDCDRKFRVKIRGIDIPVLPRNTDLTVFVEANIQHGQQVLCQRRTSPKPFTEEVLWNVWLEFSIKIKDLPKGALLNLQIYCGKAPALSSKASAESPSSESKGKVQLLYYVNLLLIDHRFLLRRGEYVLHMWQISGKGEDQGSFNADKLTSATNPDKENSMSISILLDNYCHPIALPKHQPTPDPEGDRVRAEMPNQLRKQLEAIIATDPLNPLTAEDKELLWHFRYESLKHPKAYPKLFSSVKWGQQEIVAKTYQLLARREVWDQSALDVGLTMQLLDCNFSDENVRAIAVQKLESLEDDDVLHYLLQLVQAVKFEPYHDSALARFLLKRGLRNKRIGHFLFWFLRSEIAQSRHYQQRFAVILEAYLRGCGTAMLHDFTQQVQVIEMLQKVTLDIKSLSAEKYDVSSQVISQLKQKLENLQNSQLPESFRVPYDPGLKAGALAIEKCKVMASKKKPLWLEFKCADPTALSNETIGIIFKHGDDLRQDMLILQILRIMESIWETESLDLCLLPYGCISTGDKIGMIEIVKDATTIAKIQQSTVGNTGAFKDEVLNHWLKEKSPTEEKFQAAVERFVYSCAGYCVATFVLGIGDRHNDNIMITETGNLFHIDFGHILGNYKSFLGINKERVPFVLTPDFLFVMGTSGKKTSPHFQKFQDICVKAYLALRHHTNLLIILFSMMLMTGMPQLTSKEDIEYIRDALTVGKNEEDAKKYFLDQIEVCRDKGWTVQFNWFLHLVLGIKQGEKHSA

As to `Cc1c(Nc2c(CO)nc3c(N)cc(N4CCOC(CO)C4)nn23)cccc1C(F)(F)F` (stereo in doubt; 66), the Kd (in general, the concentration at which binding is half-saturated) in experiment [1] was above 30200 nM; in experiment [2] it was 138 nM; in experiment [3], 11000 nM; in experiment [4], 13500 nM; in experiment [5], 1380 nM. In addition, the figures for the IC50 in experiment [6] and in experiment [7] were above 513 nM and 513 nM, respectively.
For the molecule `Cc1c(Cc2c(CN(C)CCS(C)(=O)=O)nc3c(N)cc(N4CCOCC4)nn23)cccc1C(F)(F)F`, the Kd in experiment [4] was above 30200 nM. The results for the IC50 in experiment [6] and in experiment [7] were 34 nM and 41 nM, respectively.
On to `Cc1nc2c(-c3cnc[nH]3)cc(N3CCOCC3)nn2c1Nc1cccc(C(F)(F)F)c1CN1CC(O)C1`, for which the results for the half-maximal inhibitory concentration (IC50) in experiment [6] and in experiment [7] were 174 nM and 17 nM, respectively.
For the molecule `Cc1nc2c(C(N)=O)cc(N3CCOCC3)nn2c1Cc1cccc(C(F)(F)F)c1C`, the Kd in experiment [1], in experiment [4] and in experiment [5] was above 30200 nM in each case. Besides, the IC50 (as a rule, the concentration at which inhibition is half-maximal) was 501 nM in experiment [6] and above 513 nM in experiment [7].
With `Cc1nc2c(N)cc(N3CCOCC3)nn2c1Nc1cccc(C(F)(F)F)c1CN1CCN(C)CC1`, the IC50 was 21 nM in experiment [6] and 17 nM in experiment [7].
In turn, `Cc1c(Cc2c(CNCCS(C)(=O)=O)nc3c(N)cc(N4CCOCC4)nn23)cccc1C(F)(F)F` came in with a Kd in experiment [4] above 30200 nM. Besides, the IC50 was 138 nM in experiment [6] and 186 nM in experiment [7].
Take `Cc1nc2c(C(=O)O)cc(N3CCOCC3)nn2c1Cc1cccc(C(F)(F)F)c1C`: the IC50 is 513 nM in experiment [6] and 316 nM in experiment [7].
For the molecule `CC(=O)NCc1nc2c(-c3cnc[nH]3)cc(N3CCOCC3)nn2c1Cc1cccc(C(F)(F)F)c1C`, the Kd was above 30200 nM in experiment [1]; 2 nM in experiment [2]; 59 nM in experiment [3]; above 30200 nM in experiment [4]; above 30200 nM in experiment [5]. Also, the results for the IC50 in experiment [6] and in experiment [7] were 33 nM and 11 nM, respectively.
Consider `Cc1nc2c(-c3cnc[nH]3)cc(N3CCOCC3)nn2c1Nc1cccc(C(F)(F)F)c1C`, for which the Kd in experiment [1] was 912 nM; in experiment [2] it was 2.6 nM; in experiment [3] it was 49 nM; in experiment [4], 2290 nM; in experiment [5], 4680 nM. Moreover, the results for the IC50 in experiment [6] and in experiment [7] were 12 nM and 8 nM, respectively.
`Cc1c(Cc2c(CO)nc3c(C(=O)O)cc(N4CCOCC4)nn23)cccc1C(F)(F)F` displayed a Kd in experiment [4] above 15100 nM. The IC50 in experiment [6] and in experiment [7] was above 513 nM throughout.
Consider `Cc1c(Nc2c(CO)nc3c(N)cc(N4CCOC(CO)C4)nn23)cccc1C(F)(F)F` (stereo in doubt; 65), for which the Kd is 6610 nM in experiment [1]; 1.3 nM in experiment [2]; 138 nM in experiment [3]; 692 nM in experiment [4]; 355 nM in experiment [5]. The IC50 in experiment [6] worked out at 79 nM; in experiment [7], 43 nM.
As to `Cc1c(Cc2c(CO)nc3c(N)cc(N4CCOCC4)nn23)cccc1C(F)(F)F` [listing 1 of 2 here], the Kd in experiment [1] is above 30200 nM; in experiment [4], above 10000 nM. Further, the IC50 in experiment [6] worked out at 46 nM; in experiment [7], 38 nM.
For the molecule `Cc1nc2c(N)cc(N3CCOCC3)nn2c1Cc1cccc(C(F)(F)F)c1C`, the Kd was 5130 nM in experiment [1]; 6 nM in experiment [2]; 171 nM in experiment [3]; 11400 nM in experiment [4]; 20300 nM in experiment [5]. The IC50 in experiment [6] is 12 nM; in experiment [7], 17 nM.
As to `Cc1nc2c(-c3cnc[nH]3)cc(N3CCOCC3)nn2c1Cc1cccc(C(F)(F)F)c1C`, the IC50 is 59 nM in experiment [6] and 48 nM in experiment [7].
On to `Cc1c(Cc2c(CO)nc3c(N)cc(N4CCOCC4)nn23)cccc1C(F)(F)F` [listing 2 of 2 here], for which the figures for the IC50 in experiment [6] and in experiment [7] were 52 nM and 41 nM, respectively.
Regarding `Cc1nc2c(N)cc(N3CCOCC3)nn2c1Nc1cccc(C(F)(F)F)c1CN1CC(O)C1`, the results for the Kd in experiment [3], in experiment [4] and in experiment [5] were 73 nM, 19600 nM and above 30200 nM, respectively. Besides, the IC50 was 44 nM in experiment [6] and 33 nM in experiment [7].

The record behind these values is ChEMBL document CHEMBL3864168, “Imidazopyridazine Inhibitors of PI3Kβ” (ACS Med Chem Lett, 2016).
